Data on five molecules can be found in paper PMC11077991, “The small molecule CBR-5884 inhibits the Candida albicans phosphatidylserine synthase” (mBio, 2024).

The nature of series [1]: precipitation in MIC media. It is filed as physicochemical.
The target in series [2] is purified C. albicans Cho1 (phosphatidylserine synthase) (Candida albicans, UniProt A0A1D8PF32). As to the kind of experiment: malachite-green-based nucleotidase-coupled assay, dose-response. The series is classed as biochemical. The following applies: top 200 µM, 3 h at 30°C, three replicates. The procedure:
A malachite-green-based nucleotidase-coupled assay was used to measure the PS synthesis activity of Cho1 (Fig. 1B). Cho1 catalyzes the production of PS and cytidylmonophosphate (CMP) from CDP-DAG and serine, where CMP can then be recognized and cleaved by the nucleotidase CD73 to release inorganic phosphate, which is subsequently detected by malachite green. To test whether this malachite-green-based assay can reflect Cho1 activity, a time-course test was performed with a fixed amount of purified Cho1 in the presence of substrates (Fig. 1C).
The bioactives library was purchased from Selleck in 2014, and the remaining libraries (anti-infectives and mechanism of action libraries) were assembled from compounds available at the Chemical Biology and Therapeutics Department at St. Jude Children’s Research Hospital. The anti-infectives library contains a curated list of antimicrobials and antiviral agents ([95]). The bioactive library has a compilation of compounds acquired from commercial sources and external academic collaborators. The mechanism of action set is a dynamic set of well-annotated compounds with comprehensive coverage of human targets and mechanisms of action ([96]). All compounds were dissolved in DMSO and 100 nL was transferred to a 384-well clear bottom plate (ThermoFisher Scientific, cat# 265203) using a Beckman Echo 650 acoustic liquid handler. Equal volumes of either the selective CD73 nucleotidase inhibitor AB680 at a final concentration of 1 µM (MedChemExpress, cat# HY-125286) or DMSO were used as positive and negative controls, respectively. A total of 30–35 ng of purified Cho1 protein was used in each reaction in 50 mM Tris-HCl (pH 8.0) for primary screening, combined with 100 µM CDP-DAG (Avanti, cat# 870510), 5 mM serine, 0.4 ng CD73 nucleotidase (R&D systems, cat# EA002), 1 mM MnCl2, 0.1% APX-100, and 0.1% digitonin, in a total volume of 10 µL. Counter screen reactions were set up by replacing only the purified Cho1 with 150 µM CMP, with all other components remaining constant. The 10 µL primary and counter screening reactions were delivered to each well of 384-well assay plates containing pre-aliquoted compounds from the library using a Multidrop Combi (ThermoFisher Scientific). […] After media transfer, assay plates were incubated for 3 h at 30°C. Plates were then removed and 32 µL of malachite green mixture [6 µL malachite A (2%, wt/vol, ammonium molybdate and 20%, vol/vol, sulfuric acid in H2O) +20 µL H2O + 6 µL malachite B (0.1%, wt/vol, malachite green oxalate and 0.5%, wt/vol, polyvinyl alcohol in H2O)] were added to each well via a MultiDrop Combi and incubated for an additional 10 min at room temperature. After incubation, plates were briefly centrifuged at 500 × g and absorbance at 620 nm was then measured using a Cytation7 plate reader (Biotek, Winooski, VT). Raw absorbance values of the compounds were normalized to DMSO (0% inhibition) and AB680 (100% inhibition) from both primary and counter screens, and % Δinhibition was calculated by […]. Z-factors for each plate were calculated using the in-house program RISE (Robust Investigation of Screening Experiments). All non-PAINs compounds that had >80% Δinhibition progressed to dose-response testing (82 total compounds). Dose-response experiments were performed in triplicate as described above using a 10-point, threefold serial dilution with the top concentration for each compound tested being 200 µM (range: 0.010161–200 μM). The absorbance at 620 nm was then measured using a PHERAstar FS multilabel reader (BMG, Cary, NC). Raw values were once again normalized to DMSO (0% inhibition) and AB680 (100% inhibition) and Z-factors for each plate were calculated using RISE. […]

The test system of series [3] is wild-type C. albicans strain SC5314. As to the kind of experiment: CLSI MIC broth microdilution. The series is classed as cell-based, Candida albicans. The settings on record: for MIC: Candida albicans; for effect on cell growth in all three media: even at 250 µM. The procedure: We then tested the effects of the six compounds on live cells by determining the minimal inhibitory concentrations (MICs) of these compounds. Following the standard Clinical & Lab Standards Institute (CLSI) MIC broth microdilution methods, wild-type C. albicans strain SC5314 was grown with avasimibe, CBR-5884, tideglusib, ebselen, ML-345, and LOC14 in RPMI MOPS medium (pH 7.0) or alternatively in minimal medium or minimal medium with HEPES (pH 7.0) at 37°C for 48 h, along with a cho1ΔΔ strain as a control (Fig. 3A through C). The concentration of the compounds was varied from 0.5 to 250 µM. […] Ebselen, LOC14, and CBR-5884, on the contrary, stopped cell growth at different concentrations in all three media, with MICs ranging between 7.8 and 31.3 μM (Fig. 3A through D). […] Specific MIC values are summarized in Fig. 3D for all the compounds.
Minimum inhibitory concentration (MIC) was determined following Clinical & Lab Standards Institute (CLSI) MIC broth microdilution protocol (Licensed to Todd Reynolds, license # Ord-1138682) ([98], [99]). Briefly, stock solutions of different compounds (purchased from MedChemExpress) were prepared at a concentration of 10 mM in DMSO and subsequently diluted as required in the same solvent. Wild-type C. albicans strain SC5314, as well as four additional wild-type strains—GDH2346, 3153A, TFPY412, and TFPY2307, were cultured overnight in YPD medium at 30°C, washed with water three times, and then diluted to a concentration of 2 × 10^3 cells/mL (OD600 = 0.00008) in one of the three media [minimal medium, minimal medium buffered with 50 mM HEPES (pH 7.0) and RPMI MOPS (pH 7.0)]. The cho1ΔΔ strain was also included as a control. A volume of 100 µL from each cell suspension was dispensed into the wells of a flat-bottom 96-well plate. An additional 100 µL of corresponding medium, containing twice the final desired concentration of each drug, was added to each well, leading to a final initial inoculum of 1 × 10^3 cells/mL (OD600 = 0.00004). The final DMSO concentration was maintained at 2.5% across all treatments. Following preparation, the plates were incubated at 37°C for 48 h and photos were taken with a Bio-Rad Gel Doc XR + Imaging System.
In general terms: In broth dilution the organism is exposed to a series of concentrations in liquid medium.

Series [4] deals with the molecule itself. As to the kind of experiment: native gel or EMSA; blue native PAGE of purified tag-free Cho1 in digitonin, stained with Coomassie Blue R-250; MW estimated with the band analysis tool of Quantity One.
[5] abbreviates: SC5314, RPMI MOPS pH 7.0, 37°C, 48 h, read-out: Minimal Inhibitory Concentration (MIC): RPMI, MOPS 7.0.
The mark [6] stands for this setting: SC5314, minimal medium with 50 mM HEPES pH 7.0, 37°C, 48 h, read-out: Minimal Inhibitory Concentration (MIC): MM, HEPES 7.0.
[7] abbreviates: SC5314, minimal medium, 37°C, 48 h, read-out: Minimal Inhibitory Concentration (MIC): MM.
Where [8] appears, read: 10-point dose-response, read-out: Best-fit IC50, inhibition of Cho1.

In brackets after ≈: the same amount, converted by molar mass. Several values for one entry are separate records, joined by “and”; a condition that tells them apart may be missing. Equal values may be shown once. Read-outs that look alike come from different tables or passages of the source.

As to `O=c1sn(-c2cccc3ccccc23)c(=O)n1Cc1ccccc1` [Tideglusib], the “solubility in MIC media” value in series [1] (concentrations 0.5 to 250 µM) is “precipitated at high concentrations”. Also, in series [2] (Best-fit IC50, inhibition of Cho1, 10-point dose-response), the half-inhibitory concentration (IC50) was ≤ 20 µM and ~8.53 µM. The MIC in series [3] (setting [5]), in series [3] (setting [6]) and in series [3] (setting [7]) was above 500 µM each time. The “effect on cell growth in all three media” value in series [3] is listed as “did not affect cell growth”.
For the molecule `CC(C)c1cc(C(C)C)c(CC(=O)NS(=O)(=O)Oc2c(C(C)C)cccc2C(C)C)c(C(C)C)c1` [Avasimibe], in series [1], the “solubility in MIC media” value is recorded as “precipitated at high concentrations”. Besides, the IC50 in series [2] (setting [8]) was around 23.4 µM. In addition, the MIC in series [3] (setting [5]), in series [3] (setting [6]) and in series [3] (setting [7]) was above 500 µM throughout. Moreover, in series [3], the “effect on cell growth in all three media” value is given as “did not affect cell growth”.
As for `O=c1c2cc(F)ccc2sn1-c1cc(S(=O)(=O)N2CCOCC2)ccc1N1CCOCC1` [ML-345], in series [2] (setting [8]), the IC50 is ≤ 20 µM and ~15.5 µM. Also, the MIC was above 500 µM in series [3] (SC5314, 48 h, pH 7, read-out: Minimal Inhibitory Concentration (MIC): MM, HEPES 7.0); 31.3 µM (≈ 15 µg/mL) in series [3] (SC5314, 48 h, pH 7, read-out: Minimal Inhibitory Concentration (MIC): RPMI, MOPS 7.0); above 500 µM in series [3] (SC5314, 48 h, read-out: Minimal Inhibitory Concentration (MIC): MM). The “effect on cells grown in the minimal media” value in series [3] (minimal media) is reported as “had no effect”.
With `c1ccc(Nc2nc3c(s2)CCCc2[nH]ncc2-3)nc1` [TC-N 22A], the IC50 in series [2] (setting [8]) was around 65.3 µM.

B1: Candida albicans phosphatidylserine synthase Cho1 (enzyme, UniProt A0A1D8PF32 1-273, looked up)
chain: MSDSSATGFSKHQESAIVSDSEGDAIDSELHMSANPPLLRRSSSLFSLSSKDDLPKPDSKEYLKFIDDNRHFSMIRNLHMADFITLLNGFSGFYSIISCLRYTLTGQTHYVQRAHFFILLGLFFDFFDGRVARLRNKSSLMGQELDSLADLVSFGVSPATIAFAIGFRTTVDVLFLAFWVLCGLTRLARFNISVNNIPKDKHGKSQYFEGLPIPTNLFWVGFMALLVYKDWIHDNLPFGIVFQDTSFEFHLVTIGFVLQGCAEISKSLKIPKP
notes: Cho1, phosphatidylserine synthase (EC 2.7.8.8) of Candida albicans, CHO1 gene expressed from the TEF1 promoter; A TEV site (ENLYFQG) lies between Cho1 and the HAx3-HISx8 tag; The forward cloning primer begins at the ATG of CHO1; also called PS synthase; CDP-diacylglycerol-serine O-phosphatidyltransferase; not shown: HAx3, C-terminal, cleaved; His8, C-terminal, cleaved
On to B1, for which, in series [4], the “stoichiometry N” value was 6.

One may read the IC50 as the point on the concentration scale where inhibition reaches its midpoint. The stoichiometry N is the number of molecules, sites or subunits per partner or assembly.
